Data reported in PMC9249544, “Identification of Flavonoid C-Glycosides as Promising Antidiabetics Targeting Protein Tyrosine Phosphatase 1B” (Journal of Diabetes Research, 2022).

Biological target: T1, Protein tyrosine phosphatase 1B (PTP1B) (Homo sapiens, UniProt P18031)
T1 construct: gene PTPN1
T1 sequence (P18031 1-435): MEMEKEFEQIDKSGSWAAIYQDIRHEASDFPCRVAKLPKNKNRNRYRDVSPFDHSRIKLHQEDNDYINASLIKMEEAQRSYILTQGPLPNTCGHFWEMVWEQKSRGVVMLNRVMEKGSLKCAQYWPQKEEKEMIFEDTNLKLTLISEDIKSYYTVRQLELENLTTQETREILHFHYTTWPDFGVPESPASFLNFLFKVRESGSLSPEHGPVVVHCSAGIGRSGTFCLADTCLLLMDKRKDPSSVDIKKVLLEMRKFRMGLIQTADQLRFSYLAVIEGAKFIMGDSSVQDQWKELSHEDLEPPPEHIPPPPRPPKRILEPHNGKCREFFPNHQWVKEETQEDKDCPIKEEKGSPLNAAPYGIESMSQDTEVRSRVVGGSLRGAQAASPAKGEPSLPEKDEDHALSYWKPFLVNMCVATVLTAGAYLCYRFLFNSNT
Experiment: p-NPP hydrolysis assay with human recombinant PTP1B ([…] nm); Lineweaver-Burk kinetics
Assay type: biochemical

O=c1cc(-c2ccc(O)c(O)c2)oc2c([C@@H]3O[C@H](CO)[C@@H](O)[C@H](O)[C@H]3O)c(O)cc(O)c12 [orientin]
IC50: 401 µM
